The source of these data is patent US6521632B2, “Method for the treatment or prevention of a disease mediated by the alpha-2B-adrenoceptor” (Oy Juvantia Pharma LTD, priority 2000, dated 2003).

Assay [1] concerns the target rat neocortical α1-adrenoceptors. The assay can be described thus: Competition binding with 3H-prazosin, rat neocortex membranes. The settings on record: concentrations of up to 30 μM. As to the method:
Binding Affinity Rat Cortical α1-adrenoceptor
The affinity for rat neocortical α1-adrenoceptors was determined in competition binding assays with ^3H-prazosin. The biological material for these assays consisted of membranes from rat neocortex. Membrane suspensions (100-200 μg of total protein per sample) and 0.2 nM-0.25 nM of ^3H-prazosin (specific activity 74 Ci/mmol) were incubated with 6 concentrations of compounds in a total volume of 0.25 ml (50 mM Tris pH 7.7 at 25° C). Each concentration was run in duplicate. Nonspecific binding was defined by 10 μM phentolamine methanesulfonate and corresponded to 25-30% of total binding. After 30 min at room temperature, incubations was terminated by rapid filtration through GF/B glass-fiber filter mats and three washes with ice-cold 10 mM Tris (pH 7.7 at 4° C.). After drying, a solid scintillate was melted onto the filter mats, and their radioactivity was measured by scintillation counting.

In assay [2] the target is T1, human α2A-adrenoceptor (Homo sapiens, UniProt P08913).
T1 sequence (P08913 1-465): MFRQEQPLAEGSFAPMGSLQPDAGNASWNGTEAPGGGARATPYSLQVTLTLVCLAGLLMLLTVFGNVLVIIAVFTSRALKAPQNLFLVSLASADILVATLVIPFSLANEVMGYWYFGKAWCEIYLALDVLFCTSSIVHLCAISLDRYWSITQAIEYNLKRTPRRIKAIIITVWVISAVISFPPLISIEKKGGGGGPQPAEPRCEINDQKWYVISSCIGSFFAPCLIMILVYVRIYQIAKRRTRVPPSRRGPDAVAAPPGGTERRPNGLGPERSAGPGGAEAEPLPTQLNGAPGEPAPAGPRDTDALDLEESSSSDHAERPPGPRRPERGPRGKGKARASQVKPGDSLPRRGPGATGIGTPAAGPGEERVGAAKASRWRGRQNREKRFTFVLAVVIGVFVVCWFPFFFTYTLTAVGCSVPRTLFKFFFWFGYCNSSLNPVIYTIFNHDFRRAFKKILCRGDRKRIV
The assay can be described thus: Competition binding with 3H-rauwolscine, human alpha-2A. Further details: expressed in transfected cells; host or cells: Shionogi S115 cells (membranes). The note with it: Mean ± SEM, n = 3 unless indicated, membranes of Shionogi S115 cells, read-out: Binding affinity Ki alpha-2A. On the procedure:
(§1) Binding Affinity Human Alpha-2-adrenoceptor
(§2) The affinity of test compounds for the three human α2-adrenoceptor subtypes (α2A, α2B and α2C) was determined in competition binding assays with ^3H-rauwolscine. The biological material for these experiments consisted of membranes from Shionogi S115 cells stably transfected with either of the three human α2 subtypes (Marjarnaki et al. 1992). Membrane (5-10 μg of total protein per sample) and 1 nM-2 nM ^3H-rauwolscine (specific activity 78 Ci/mrnmol) were incubated in 50 mM KH2PO4, pH 7.5 with 6 concentrations of the compounds. Each concentration was run in duplicate. Nonspecific binding was defined by 100 μM oxymetazoline and corresponded to 5-15% of total binding. After 30 mim at room temperature, incubations were terminated by rapid vacuum filtration through GF/B glass fiber filter and three 5 ml washes with icecold incubation buffer. The filters were then dried, impregnated with scintillate and their radioactivity was measured by scintillation counting. The analysis of the experiments was carried out by nonlineair least square curve fitting. Experimentally determined IC50 values were converted to Ki's by making use of the Cheng-Prusoff equation (Cheng and Prusoff, 1973). Experiments were repeated a minimum of three times.

Assay [3] addresses T2, human α2C-adrenoceptor (Homo sapiens, UniProt P18825).
T2 sequence (P18825 1-462): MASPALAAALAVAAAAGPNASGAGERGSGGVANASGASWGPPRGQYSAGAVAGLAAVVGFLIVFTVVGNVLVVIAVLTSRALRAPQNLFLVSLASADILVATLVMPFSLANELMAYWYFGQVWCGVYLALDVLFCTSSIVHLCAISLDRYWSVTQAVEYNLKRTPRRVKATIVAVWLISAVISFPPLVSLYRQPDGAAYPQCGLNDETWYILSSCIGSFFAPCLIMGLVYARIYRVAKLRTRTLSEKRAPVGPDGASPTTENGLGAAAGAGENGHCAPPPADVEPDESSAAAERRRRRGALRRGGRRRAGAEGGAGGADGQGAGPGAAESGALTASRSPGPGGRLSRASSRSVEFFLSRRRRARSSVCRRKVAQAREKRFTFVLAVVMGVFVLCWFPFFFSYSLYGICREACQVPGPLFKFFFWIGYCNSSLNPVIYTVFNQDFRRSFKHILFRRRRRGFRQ
The assay can be described thus: Inhibition of epinephrine-stimulated 35S-GTPγS binding, human alpha-2C. It counts as biochemical. The settings on record: Mean ± SEM, n minimum three; CHO cell membranes; epinephrine 5 μM; incomplete dose-response curves, KB numbers are minimum estimates; read-out: Antagonist effect KB alpha-2C. As to the method: (§3) Antagonist Activity on Human a2-adrenoceptor Subtypes
(§4) Membranes (2-6 μg of protein per samnple) and 12 concentrations of test compound were preincubated for 30 min with a fixed concentration fo epinephrine (5 μM for α2A, 15 μM for α2B, 5 μM for α2C) in 50 mM Tris, 5 mM MgCl2, 150 mM NaCl, 1 mM DTT,
(§5) 1 mM EDTA, 10 μuM GDP, 30 μM ascoerbic acid, pH 7.4 at room temperature. Binding of radiolabel was started by the addition of trace amounts of ^35S-GTPγS (0.08 nM-0.15 nM, specific activity 1250 Ci/mmol) to the incubation mixture. After an additional 60 min at room temperature, the incubation was terminated by rapid vacuum filtration through glass fiber filter. Filters were washed three times with 5 ml icecold wash buffer (20 mM Tris, 5 mM MgCl2, 1 mM EDTA pH 7.4 at room temperature), dried and counted for radioactivity in a scintiallation counter. Analysis of experiments was carried out by nonlinear least square fitting. Experiments were repeated at least three times.

Assay [4] addresses T2, human α2C-adrenoceptor. The assay can be described thus: Competition binding with 3H-rauwolscine, human alpha-2C. Further details: expressed in transfected cells; host or cells: Shionogi S115 cells (membranes). The settings on record: Mean ± SEM, n = 3 unless indicated, membranes of Shionogi S115 cells, read-out: Binding affinity Ki alpha-2C. As to the method: as §1, §2
Assay [5] deals with T1, human α2A-adrenoceptor. The experiment in a line: Inhibition of epinephrine-stimulated 35S-GTPγS binding, human alpha-2A. It counts as biochemical. The settings on record: Mean ± SEM, n minimum three; CHO cell membranes; epinephrine 5 μM; incomplete dose-response curves, KB numbers are minimum estimates; read-out: Antagonist effect KB alpha-2A. As to the method: as §3, §4, §5

Assay [6] deals with T3, human α2B-adrenoceptor (Homo sapiens, UniProt P18089).
T3 sequence (P18089 1-450): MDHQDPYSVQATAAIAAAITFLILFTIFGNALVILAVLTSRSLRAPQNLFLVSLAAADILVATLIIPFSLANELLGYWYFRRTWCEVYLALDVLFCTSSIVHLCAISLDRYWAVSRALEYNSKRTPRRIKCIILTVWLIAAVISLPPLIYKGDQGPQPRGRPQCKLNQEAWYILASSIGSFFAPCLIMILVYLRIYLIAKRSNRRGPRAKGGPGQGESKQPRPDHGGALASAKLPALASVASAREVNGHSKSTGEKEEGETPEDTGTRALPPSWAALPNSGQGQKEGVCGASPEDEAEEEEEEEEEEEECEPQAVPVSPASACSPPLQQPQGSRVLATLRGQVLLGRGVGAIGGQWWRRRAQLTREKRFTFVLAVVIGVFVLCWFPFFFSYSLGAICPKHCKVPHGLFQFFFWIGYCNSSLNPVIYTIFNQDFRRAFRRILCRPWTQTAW
The experiment in a line: Inhibition of epinephrine-stimulated 35S-GTPγS binding, human alpha-2B. It counts as biochemical. The note with it: Mean ± SEM, n minimum three; CHO cell membranes; epinephrine 15 μM; read-out: Antagonist effect KB alpha-2B. On the procedure:
as §3, §4, §5

The target in assay [7] is T3, human α2B-adrenoceptor. The assay can be described thus: Competition binding with 3H-rauwolscine, human alpha-2B. The settings on record: Mean ± SEM, n = 3 unless indicated, membranes of Shionogi S115 cells, read-out: Binding affinity Ki alpha-2B. Further details: expressed in transfected cells; host or cells: Shionogi S115 cells (membranes). As to the method:
as §1, §2

Where only a bound is given, the exact number is not on record here.

Broadly, the IC50 is the concentration that inhibits the measured activity by half. As a reminder, the Ki is the dissociation constant of the complex between target and ligand, obtained from inhibition or displacement. In general, Kb refers to the equilibrium dissociation constant of an antagonist, usually derived from a functional assay. For the molecule `CCn1c(CNc2ccc(S(=O)(=O)Nc3nc(C)cc(C)n3)cc2)nc2ccccc21` [A], the IC50 in assay [1] (read-out: IC50, displacement of 3H-prazosin) is above 30000 nM. Also, the Ki in assay [1] (read-out: Ki, displacement of 3H-prazosin) was above 30000 nM; at human α2A-adrenoceptor [2], 4100 ± 200 nM; at human α2C-adrenoceptor [4], above 4700 nM; on human α2B-adrenoceptor [7], 30 ± 4 nM. The Kb on human α2C-adrenoceptor [3] was 2400 ± 900 nM; at human α2A-adrenoceptor [5], 2400 ± 700 nM; at human α2B-adrenoceptor [6] it was 73 ± 23 nM.

Consider `Cc1cc(C)nc(NS(=O)(=O)c2ccc(NCc3nc4ccccc4n3C)cc2)n1` [B], for which the Ki on human α2A-adrenoceptor [2] is above 30000 nM; on human α2C-adrenoceptor [4], above 30000 nM; on human α2B-adrenoceptor [7], 215 ± 60 nM. Further, the antagonist dissociation constant (Kb) is above 10000 nM on human α2C-adrenoceptor [3], above 10000 nM at human α2A-adrenoceptor [5] and 250 ± 80 nM on human α2B-adrenoceptor [6].

Consider `CCOc1ccc(C(=O)Nc2ccc(S(=O)(=O)Nc3nc(C)cc(C)n3)cc2)cc1` [C], for which the Ki is above 30000 nM on human α2A-adrenoceptor [2], above 30000 nM on human α2C-adrenoceptor [4] and 1860 nM on human α2B-adrenoceptor [7].

Take `Cc1cc(C)nc(NS(=O)(=O)c2ccc(NC(=O)/C=C/c3ccc(F)cc3)cc2)n1` [D]: the results for the Ki at human α2A-adrenoceptor [2], at human α2C-adrenoceptor [4] and at human α2B-adrenoceptor [7] were above 30000 nM, above 30000 nM and 530 ± 90 nM, respectively.

For the molecule `Cc1cc(C)nc(NS(=O)(=O)c2ccc(NC(=O)COc3ccccc3)cc2)n1` [E], the Ki on human α2A-adrenoceptor [2] was above 100000 nM; at human α2C-adrenoceptor [4], above 100000 nM; at human α2B-adrenoceptor [7], 2900 ± 300 nM.
